Results as given in patent US20150366821A1, “ADRENERGIC AGONISTS FOR USE IN TREATING LIVER DAMAGE” (priority 2012, published 2015).

Legend:
[1] = system: APAP induced liver injury; experiment: APAP induced liver injury model (serum ALT, % necrosis, deaths); details: for ALT 3 h after APAP treatment: APAP alone vs APAP with ISO
Protocol: (§1) Dbh^−/− mice were administered ISO as previously described (Mackintosh, C. A., et al. 2000). Mouse recombinant TWEAK (R&D systems) was administered IP at 0.04 μg/g body weight.
The degree of liver injury was assessed by histology and serum ALT. All liver sections were stained with haematoxylin and eosin (H&E) and scanned by NanoZoomer (Hamamatsu, Japan). Necrotic area was measured and expressed as a percentage of necrotic tissue in whole area of liver section using NDP.view (Hamamatsu, Japan).

[2] = system: hepatic progenitor cells (HPC); experiment: CK19 positive HPC number in Dbh−/− mice infused with isoprenaline; format: in vivo; details: ISO infused at 20 mg/kg/day
Protocol: as §1

[3] = system: 603B cells; experiment: 603B cell proliferation assay (CCK-8 / direct cell counts); format: cell-based, murine
Protocol: Cell proliferation assay was performed using the Cell counting Kit-8 (CCK-8) according to the manufacturer's protocol.
To further confirm the CCK-8 assay we also directly counted the cell numbers in some experiments. Adherent cells were treated with 0.25% trypsin solution containing 0.02% EGTA in Ca^2+ and Mg^2+ free phosphate-buffered saline at 37° C. for 5 min, and the viable cell number and dead cell number was determined using Nucleocounter (Chemometec).

[4] = system: hepatic progenitor cells (HPC); experiment: HPC number in livers of normal C57BL/6J mice (EpCAM flow cytometry, CK19 immunohistochemistry); format: in vivo; details: ISO 2.5 mg/kg
[5] = system: canonical Wnt pathway (β-catenin) in 603B cells; experiment: Canonical Wnt pathway in 603B cells (western blot, immunocytochemistry, real-time PCR); format: cell-based, murine
[6] = system: canonical Wnt pathway on HPC; experiment: Canonical Wnt pathway in liver of ISO treated mice (PCR, immunohistochemistry); format: in vivo
[7] = system: canonical Wnt pathway (β-catenin, Wnt ligands); experiment: Canonical Wnt pathway in livers of APAP treated mice (western blot, immunohistochemistry, Wnt ligand PCR); format: in vivo
Protocol: Semi-quantitative real time PCR was done with Rotor-Gene 3000 (Corbett Robotics) and QuantiFast SYBR Green PCR kit (Qiagen). All real-time PCR reactions were performed in triplicate with GAPDH as an internal control. Target gene levels in treated samples are presented as a ratio to levels detected in corresponding control samples, according to the ΔΔCt method. Western blotting was performed as described (Soeda, J et al., 2012). Western blots shown are representative of 2 or 3 independent repeats. Semi-quantitative analysis of western blots by densitometry was carried out using LabWorks 4.6 software (UVP, USA).

[8] = system: hepatic stellate cells (HSC) and Kupffer cells (KC); experiment: Wnt expression in isolated liver cell types ex vivo; format: cell-based, mice; details: presence of ISO
[9] = system: β-catenin in hepatocytes; experiment: β-catenin expression on primary hepatocytes (western blotting); format: cell-based, mice; details: data not shown
Protocol: Western blotting was performed as described (Soeda, J et al., 2012). Western blots shown are representative of 2 or 3 independent repeats. Semi-quantitative analysis of western blots by densitometry was carried out using LabWorks 4.6 software (UVP, USA).

[10] = system: HPC number and liver injury; experiment: Infusion of SNS agonists into spontaneously steatohepatitic ob/ob mice; format: in vivo
[11] = system: HPC expansion and hepatomegaly; experiment: Dbh−/− mice on a diet inducing NASH; format: in vivo; details: infusion of ISO
[12] = system: primary hepatocytes
[13] = system: hepatic progenitor cells (HPC); experiment: HPC number in APAP induced liver injury model (flow cytometry, immunohistochemistry)
[14] = system: HPC population and liver injury; details: in vivo conditions simulating NASH
[15] = system: liver progenitors and liver injury; details: chronic model of liver disease; cited from earlier work
[16] = system: hepatic progenitor cells (HPC); format: in vivo, mice; details: recombinant TWEAK 0.04 μg/g IP
From the text: FIG. 5C are representative images of immunohistochemical staining with CK19 (DAB chromogen, brown), upper panels; and CK19 with Ki67 (AEC chromogen, red), double staining (middle panels) and NFκB p65 immunostaining (lower panels). Insert=higher magnification, arrow head indicates positive staining of ki67 in CK 19+ve HPCs. White arrow head indicates nuclear localization of NFKb p65 in periportal ductular cells;
Nuclei were stained with DAPI (Vector).

[17] = 24 h after APAP 375 mg/kg, APAP alone vs ISO (2.5 mg/kg) 1 h after APAP

For CC(=O)Nc1ccc(O)cc1 [APAP, Paracetamol], the “ALT 3 h after APAP treatment” value [1] was “significant elevation in ALT”, the ALT [1, 17] was 3332±462.9 IU/L and the deaths ([1]; APAP 500 mg/kg intraperitoneally) was “significant number of deaths”.

In the case of CC(C)NCC(O)c1ccc(O)c(O)c1 (stereo not shown) [ISO, Isoprenaline], the “HPC numbers (CK-19 positive cells)” value [2] is reported as “significantly recovered HPC numbers”, the 603B cell proliferation ([3]; ISO 100 pM-10 μM) is reported as “induced 603B cell proliferation” and the “number of HPC cells (EpCAM flow cytometry, CK19 immunohistochemistry)” value [4] is reported as “increased the number of the HPC cells”. The “Wnt1, 3a, 6 and ma mRNA expression” value ([5]; 10 μM ISO, real-time PCR) was “significantly increased”, the “expression of cyclin D1” value ([5]; 10 μM ISO, western blot) was “significantly upregulated” and the “expression of dephophorelated β-catenin (activated β-catenin)” value ([5]; 10 μM ISO, western blot) was “significantly upregulated”. For the same molecule, the “total β-catenin expression” value ([5]; 10 μM ISO, western blot) was “significantly increased”, the “nuclear localisation of β-catenin” value ([5]; immunofluorescence cytochemistry) was “accumulation of β-catenin in the nuclei” and the “Wnt6 mRNA in total liver” value ([6]; 24 h after ISO injection) was “upregulation of Wnt6 mRNA”. The “β-catenin immunoreactivity on periportal ductular cell” value ([6]; 24 h after ISO, immunohistochemistry) was “strong β-catenin immunoreactivity”, the “ALT 3 h after APAP treatment” value [1] was “significantly attenuated” and the ALT [1, 17] was 674.1±173 IU/L. The hepatic necrosis [1, 17] was 18.48±1.935%, the “effect on deaths after APAP” value ([1]; APAP 500 mg/kg intraperitoneally, ISO treatment) was “reduced by ISO treatment” and the “APAP induced-liver injury (ALT)” value ([1]; ISO administered 3 hrs post APAP) was “markedly reduced APAP induced-liver injury”. The “β-catenin expression in liver (Western blotting)” value ([7]; 24 h after injection, ISO treated vs APAP alone and controls) was “significantly increased”, the “Wnt6 expression in total liver” value ([7]; APAP+ISO group compared to APAP only group, 24 h) was “significantly higher expression” and the “Wnt 10a expression” value ([7]; APAP+ISO group, 2 h after APAP administration) was “significantly higher expression”. The β-catenin activation ([7]; APAP+ISO group, 3 h after APAP administration) was “significant β-catenin activation”, the “activated β-catenin staining in liver (immunohistochemistry)” value ([7]; APAP+ISO treated groups, 24 h) was “strong β-catenin staining” and the “Wnt 6 expression in HSC or KC” value [8] was “did not induce upregulation of Wnt 6”. For the same molecule, the “β-catenin expression on hepatocytes (Western blotting)” value [9] was “did not increase β-catenin expression”, the HPC number [10] was “increases in HPC number” and the liver injury [10] was “reduction in liver injury”. For the same molecule, the “loss of hepatomegaly and expansion of HPC on NASH diet” value [11] was “reversed”, the “protection of hepatocytes from APAP induced death (LDH release)” value ([12]; ISO pre-treatment 100 pM-10 μM, 10 mM APAP) was “did not protect” and the “number of HPCs (flow cytometry and immunohistochemistry)” value ([13]; APAP 375 mg/kg + ISO vs APAP alone) was “significantly increased the number of HPCs”. For the same molecule, the “HPC density in the smallest portal tract (CK19 positivity)” value ([13]; APAP+ISO group compared to APAP alone group) was “significantly increased”.

In the case of CC(=O)N[C@@H](CS)C(=O)O [NAC, N-Acetyl Cysteine], the “hepatocyte injury (ALT)” value ([1]; NAC 150 mg/kg administered 1 hour following APAP overdose) is reported as “markedly reduces hepatocyte injury” and the “protection from APAP injury (ALT)” value ([1]; NAC administered 3 hrs post APAP) is reported as “did not have a protective role”.

For NC[C@H](O)c1ccc(O)c(O)c1 [NE, Norepinephrine], the HPC number [10] was “increases in HPC number” and the liver injury [10] was “reduction in liver injury”.

With CNC[C@H](O)c1cccc(O)c1 [PE, phenylephrine] the 603B cell proliferation ([3]; PE 10 pM to 10 μM) was “induced moderate but significant proliferation”, the ALT ([1]; APAP 375 mg/kg, PE 3 mg (3 mg/kg) 1 h after APAP, 24 hrs) was 2000±1200 and the ALT ([1]; APAP 375 mg/kg, PE 10 mg (10 mg/kg) 1 h after APAP, 24 hrs) was 450±200.

In the case of CC(C)NCC(O)COc1cccc2ccccc12 (stereo not shown) [PRL, propranolol], the “effect on ISO induced 603B proliferation” value ([3]; pre-treatment with 10 μM PRL, 10 μM ISO) is reported as “inhibited ISO induced proliferation”, the HPC population [14] is reported as “expanded the HPC population” and the “numbers of HPCs (CK19 positive cells density)” value ([13]; APAP with subsequent PRL) is reported as “reduced numbers of HPCs”.

In the case of COc1cc2nc(N3CCN(C(=O)c4ccco4)CC3)nc(N)c2cc1OC [PRZ, prazosin], the liver injury [15] is listed as “reduced injury” and the liver progenitors [15] is listed as “expanded liver progenitors”.

For Wnt3a, the “β-catenin expression on hepatocytes (Western blotting)” value [9] was “induced increased β-catenin expression”.

B1: DKK1: Wnt antagonist, recombinant mouse Dkk1 (protein, UniProt O54908 32-272, looked up)
Dickkopf-related protein 1: TLNSVLINSNAIKNLPPPLGGAGGQPGSAVSVAPGVLYEGGNKYQTLDNYQPYPCAEDEECGSDEYCSSPSRGAAGVGGVQICLACRKRRKRCMRHAMCCPGNYCKNGICMPSDHSHFPRGEIEESIIENLGNDHNAAAGDGYPRRTTLTSKIYHTKGQEGSVCLRSSDCAAGLCCARHFWSKICKPVLKEGQVCTKHKRKGSHGLEIFQRCYCGEGLACRIQKDHHQASNSSRLHTCQRH
For B1, the “proliferation of ISO-treated vs ISO plus DKK1-treated 603B cells” value ([3]; recombinant Dkk1 0.1 μg/ml, ISO 10 μM, CCK8) was “trend towards statistical difference”, the “effect on protection by EpCAM positive cell administration” value ([1]; APAP + EpCAM+ve cells + DKK1) was “reversed the effect of EpCAM positive cell administration” and the “effect on protection by ISO stimulated 603B conditioned media” value ([12]; recombinant DKK1 0.1 μg/ml with CM) was “reversed”.

B2: TWEAK: Tumour associated weak inducer of apoptosis; mouse recombinant TWEAK (R&D systems) (protein, UniProt O43508 94-249, looked up)
Tumor necrosis factor ligand …: SAPKGRKTRARRAIAAHYEVHPRPGQDGAQAGVDGTVSGWEEARINSSSPLRYNRQIGEFIVTRAGLYYLYCQVHFDEGKAVYLKLDLLVDGVLALRCLEEFSATAASSLGPQLRLCQVSGLLALRPGSSLRIRTLPWAHLKAAPFLTYFGLFQVH
With B2 the “APAP induced liver injury (% necrosis, serum ALT)” value ([1]; TWEAK 0.04 μg/g pre-treatment before APAP, 24 h) was “protected from APAP induced liver injury” and the “HPC proliferation (CK19+ve cells)” value [16] was “induced HPC proliferation”.
